These results are taken from US20250340579A1 (priority 2022, published 2025).

The conditions of series [1]: pH 7.4.
For series [2] the following is noted: in vivo; cited from earlier work.

On to bis-aminotetrazole-cobinamide, for which, in series [1], the solution stability entry is “stable at room temperature when protected from bright light”.

As for `C/C1=C2/[N-][C@H]([C@H](CC(N)=O)[C@@]2(C)CCC(=O)NC[C@@H](C)O)[C@]2(C)N=C(/C(C)=C3N=C(/C=C4N=C1[C@@H](CCC(N)=O)C\4(C)C)[C@@H](CCC(N)=O)[C@]\3(C)CC(N)=O)[C@@H](CCC(N)=O)[C@]2(C)CC(N)=O.[Co+3]` [Cobinamide], in series [2], the “effectiveness post-cyanide exposure versus pre-exposure” value is on record as “as effective when administered up to 5 minutes post-cyanide exposure as when given pre-exposure”.
